Data: patent US6235717A, “Pharmaceutical compounds” (Glaxo Wellcome Inc., priority 1993, dated 2001)
Non-standard residues stand in square brackets, D forms with d. Residues, ends and D or L forms follow the SMILES beside them. ξ: configuration not given here. *: point of attachment. Phe(4-Br) = N[C@@H](Cc1ccc(Br)cc1)C(=O)O; Bta = N[C@@H](Cc1csc2ccccc12)C(=O)O; ξW = NC(Cc1c[nH]c2ccccc12)C(=O)O; Cbz = O=C(OCc1ccccc1)*; Bn = c1ccc(C*)cc1

Target: endothelin converting enzyme (ECE) (Sus scrofa, UniProt F1SU04)
Sequence (F1SU04 entry or part of it): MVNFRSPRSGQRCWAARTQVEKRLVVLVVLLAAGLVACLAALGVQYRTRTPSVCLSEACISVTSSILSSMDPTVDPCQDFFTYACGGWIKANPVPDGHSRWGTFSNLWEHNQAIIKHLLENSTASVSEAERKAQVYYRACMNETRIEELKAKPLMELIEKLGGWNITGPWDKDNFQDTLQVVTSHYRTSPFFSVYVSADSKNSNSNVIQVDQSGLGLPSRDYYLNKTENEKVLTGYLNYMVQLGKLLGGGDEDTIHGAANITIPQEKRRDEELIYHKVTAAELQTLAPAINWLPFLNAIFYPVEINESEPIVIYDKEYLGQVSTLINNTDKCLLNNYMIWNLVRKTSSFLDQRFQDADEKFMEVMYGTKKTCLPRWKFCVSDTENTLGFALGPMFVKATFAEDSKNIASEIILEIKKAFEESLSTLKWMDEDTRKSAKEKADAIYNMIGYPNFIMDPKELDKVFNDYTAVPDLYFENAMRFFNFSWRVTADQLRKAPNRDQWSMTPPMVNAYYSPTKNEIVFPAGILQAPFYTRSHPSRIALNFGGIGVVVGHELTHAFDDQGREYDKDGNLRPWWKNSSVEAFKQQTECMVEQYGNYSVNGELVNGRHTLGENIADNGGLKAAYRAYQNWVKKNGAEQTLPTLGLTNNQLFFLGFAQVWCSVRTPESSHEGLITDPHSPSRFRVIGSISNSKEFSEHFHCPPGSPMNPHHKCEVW
Assay: "ECE" assay with porcine aortic "ECE" prep, fluorogenic substrate Suc-Ile-Ile-Trp-MCA
Assay type: biochemical
Settings: porcine aortic endothelial cell ECE prep; 80 μM Suc-Ile-Ile-Trp-MCA; 15-20 min preincubation; overnight at 37° C.; pH 7.0; AMC fluorescence
Procedure: IC50 values were determined as follows:
Porcine Aortic "ECE" Prep
Porcine aortas (22-25) were obtained fresh from a local slaughterhouse and delivered in cold PBS on ice. The aortas were cut open, rinsed with cold PBS and the endothelial cell layer scraped into cold PBS using a scalpel. The endothelial cells were pelleted by centrifugation, rinsed once with cold PBS, and repelleted. The pellet was lysed by addition of 10 volumes of 10 mM Tris-HCl, pH 7.0, containing protease inhibitors and DTS, followed by brief sonication and homogenization. The lysate was centrifuged at 100,000 g for 1 hour and the supernatant applied to a MONOQ FPLC anion exchange column equilibrated in 10 mM Tris-HCl, pH 7.0 (buffer A) which was then developed with an increasing gradient of NaCl in buffer A. The active fractions were aliquoted and stored at -70° C.
The ECE assay was performed in 96-well microplates in a total volume of 200μ/well. The assay cocktail contains 100 mM Tris-HCl, pH 7.0, 20 mM CaCl2, 80 μM substrate (Suc-Ile-Ile-Trp-MCA), enzyme and test compounds. The test compounds were preincubated with the enzyme for 15-20 minutes before initiation of the assay by addition of the substrate. The assay was incubated overnight at 37° C. and the fluorescence intensity caused by the release of AMC was determined using a fluorescence microplate reader (EX360 nm/EM460 nm). IC50 values for compounds were determined by constructing concentration-effect curves for the inhibition of enzyme activity. Concentrations on the linear portion of the inhibition curve were used to determine the IC50 utilizing a Hill plot.

Row | SMILES | IC50
1 | CC[C@H](C)[C@H](NC(=O)OCc1ccccc1)C(=O)N[C@H](C(=O)N[C@H](C=O)Cc1c[nH]c2ccccc12)[C@@H](C)CC [Example 15, N-Benzyloxycarbonyl-S-isoleucyl-S-isoleucine 1-S-formyl-2-(1H-indol-3-yl]ethylamide] (Cbz-Ile-Ile-Trp-aldehyde) | 200 nM
2 | CC[C@H](C)[C@H](NC(=O)OCc1ccccc1)C(=O)N[C@H](C(=O)N[C@H](C=O)Cc1ccccc1)[C@@H](C)CC [Example 16, N-Benzyloxycarbonyl-S-isoleucyl-S-isoleucine 1-S-formyl-2-phenyl-ethylamide] (Cbz-Ile-Ile-Phe-aldehyde) | 400 nM
3 | CC[C@H](C)[C@H](NC(=O)OCc1ccccc1)C(=O)N[C@H](C(=O)N[C@H](C=O)CC(C)C)[C@@H](C)CC [Example 17, N-Benzyloxycarbonyl-S-isoleucyl-S-isoleucine 1-S-formyl-3-methyl-butylamide] (Cbz-Ile-Ile-Leu-aldehyde) | 4400 nM
4 | CC[C@H](C)[C@H](NC(=O)OCc1ccccc1)C(=O)N[C@H](C(=O)N[C@H](C=O)Cc1csc2ccccc12)[C@@H](C)CC [Example 18, N-Benzyloxycarbonyl-S-isoleucyl-S-isoleucine 1-S-formyl-2-(benzo-thien-3-yl)ethylamide] (Cbz-Ile-Ile-[Bta]-aldehyde) | 600 nM
5 | O=C[C@H](Cc1c[nH]c2ccccc12)NC(=O)[C@H](Cc1ccc(OCc2ccccc2)cc1)NC(=O)[C@H](Cc1ccc(Br)cc1)NC(=O)OCc1ccccc1 [Example 19, N-Benzyloxycarbonyl-S-p-bromophenylalnyl-S-(O-benzyl)tyrosyl-1-S-formyl-1-(1H-indol-3-yl-methyl)-methylamide] (Cbz-[Phe(4-Br)]-Tyr(Bn)-Trp-aldehyde) | 10 nM
6 | CC[C@H](C)[C@H](NC(=O)[C@H](Cc1ccccc1)NC(=O)OCc1ccccc1)C(=O)N[C@H](C=O)[C@@H](C)CC [Example 20, N-Benzyloxycarbonyl-S-phenylalanyl-S-isoleucyl-1-S-formyl-1-(S)-1-methylpropylmethylamide] (Cbz-Phe-Ile-Ile-aldehyde) | 1100 nM
7 | CC[C@H](C)[C@@H](C=O)NC(=O)[C@H](Cc1ccccc1)NC(=O)[C@H](C)NC(=O)OCc1ccccc1 [Example 21, N-Bezyloxycarbonyl-S-alanyl-S-phenylalanyl-1-S-formyl-1-(2-S-butyl)-methylamide] (Cbz-Ala-Phe-Ile-aldehyde) | 1200 nM
8 | CCC(C)C(C=O)NC(=O)C(NC(=O)C(NC(=O)OCc1ccccc1)C(C)CC)C(C)CC [Example 22, N-Benzyloxycarbonyl-S-isoleucyl-S-isoleucyl-1-S-formyl-1-(S)-1-methylpropyl)-methylamide] (Cbz-Ile-Ile-Ile-aldehyde; configuration not given here) | 4000 nM
9 | CC[C@H](C)[C@H](NC(=O)[C@@H](NC(=O)OCc1ccccc1)C(C)C)C(=O)NC(C=O)Cc1c[nH]c2ccccc12 (stereo partly drawn) [Example 24] (Cbz-Val-Ile-[ξW]-aldehyde) | 1500 nM
10 | CC[C@H](C)[C@H](NC(=O)[C@H](Cc1ccccc1)NC(=O)OCc1ccccc1)C(=O)N[C@H](C=O)Cc1c[nH]c2ccccc12 [Example 25, N-Benzyloxycarbonyl-S-phenylalanyl-S-isoleucyl-1-S-formyl-1-(1H-indol-3-yl-methyl)-methylamide] (Cbz-Phe-Ile-Trp-aldehyde) | 300 nM
11 | C[C@H](NC(=O)OCc1ccccc1)C(=O)N[C@@H](Cc1ccccc1)C(=O)N[C@H](C=O)Cc1c[nH]c2ccccc12 [Example 26, N-Benzyloxycarbonyl-S-alanyl-S-phenylalanyl-1-S-formyl-1-(1H-indol-3-yl-methyl)-methylamide] (Cbz-Ala-Phe-Trp-aldehyde) | 1500 nM
12 | CCC(C)C(NC(=O)OCc1ccccc1)C(=O)NC(Cc1ccccc1)C(=O)NC(C=O)Cc1c[nH]c2ccccc12 (stereo not drawn) [Example 27, N-Benzyloxycarbonyl-S-isoleucyl-S-phenylalanyl-1-S-formyl-1-(1H-indol-3-yl-methyl)-methylamide] (Cbz-Ile-Phe-Trp-aldehyde; configuration not given here) | 500 nM
